Measurements reported in BindingDB's records for patent US12084420 (Volastra Therapeutics, 2024).

target: T1, Kinesin-like protein KIF18A (Homo sapiens, UniProt Q8NI77); assay: Inhibition of KIF18A Microtubule-Dependent ATPase Activity
T1 sequence (Q8NI77 whole entry): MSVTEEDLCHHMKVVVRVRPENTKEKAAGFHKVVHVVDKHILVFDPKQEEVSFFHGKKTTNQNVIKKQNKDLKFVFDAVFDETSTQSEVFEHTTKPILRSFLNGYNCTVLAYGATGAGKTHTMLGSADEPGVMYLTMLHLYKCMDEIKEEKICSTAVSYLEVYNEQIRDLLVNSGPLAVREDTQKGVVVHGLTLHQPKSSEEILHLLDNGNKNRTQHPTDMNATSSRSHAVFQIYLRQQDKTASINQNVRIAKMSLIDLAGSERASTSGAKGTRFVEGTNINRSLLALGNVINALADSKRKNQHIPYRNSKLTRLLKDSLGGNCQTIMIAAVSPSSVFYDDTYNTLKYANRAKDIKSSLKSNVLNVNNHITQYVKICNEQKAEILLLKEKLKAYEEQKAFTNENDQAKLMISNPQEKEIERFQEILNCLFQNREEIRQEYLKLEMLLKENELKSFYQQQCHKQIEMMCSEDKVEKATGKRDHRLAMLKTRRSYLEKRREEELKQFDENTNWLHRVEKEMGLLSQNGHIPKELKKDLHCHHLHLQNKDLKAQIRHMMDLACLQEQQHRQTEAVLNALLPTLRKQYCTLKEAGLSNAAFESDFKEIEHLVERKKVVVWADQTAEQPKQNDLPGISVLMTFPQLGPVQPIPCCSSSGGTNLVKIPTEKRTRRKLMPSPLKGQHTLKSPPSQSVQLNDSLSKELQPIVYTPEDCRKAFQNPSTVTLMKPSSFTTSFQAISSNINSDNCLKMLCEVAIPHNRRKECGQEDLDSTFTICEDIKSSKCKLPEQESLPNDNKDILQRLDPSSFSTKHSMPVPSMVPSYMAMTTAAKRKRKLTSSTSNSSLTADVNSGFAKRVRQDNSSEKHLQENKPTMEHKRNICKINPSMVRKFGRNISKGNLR
Method: Table 9: Test compounds were plated in a 3× dilution scheme in a 384-well plate. […] After incubation at room temperature for 30 min, 2.5 μL of microtubule mix was added [0.2 mg/mL pre-formed microtubules, 2.0 mM ATP in assay buffer], the plate was centrifuged for 30 s and then incubated at 28° C. for 60 min. 5 μL of Promega ADP-Glo Max R1 was added, the plate was centrifuged for 30 s, and the mixture incubated for 4 h at room temperature. 10 μL of Promega ADP-Glo Max R2 was added, the plate centrifuged for 30 s, and incubated for 60 min at room temperature. Luminescence was measured with an Envision plate reader, and % Inhibition was calculated for each well as: ([max−min]−[test−min])/[max−min]. IC50 values were calculated from concentration vs. % Inhibition data via a four-parameter variable slope model.

| SMILES | IC50 |
| --- | --- |
| O=C(c1cccc(S(=O)(=O)N2CCC(F)(F)CC2)c1)N1CC2(CCCC2)c2cc(NS(=O)(=O)CCO)ccc21 [US12084420, Compound 27] | 83 nM |
| Cn1nc(S(=O)(=O)NC(C)(C)C)cc1C(=O)N1CC2(CCCCC2)c2cc(NS(C)(=O)=O)ccc21 [US12084420, Compound 59] | 1000 nM |
| CC(C)(C)NS(=O)(=O)c1csc(C(=O)N2CC3(CCCCC3)c3cc(NS(C)(=O)=O)ccc32)c1 [US12084420, Compound 147] | 43 nM |
| CC(C)(CO)NS(=O)(=O)c1cccc(C(=O)N2CC3(CCC4(CC4)CC3)c3cc(NS(C)(=O)=O)ccc32)c1 [US12084420, Compound 220] | 16 nM |
| CC(C)(C)NS(=O)(=O)c1cc(C(=O)N2CC3(CCCCC3)c3cc(NS(C)(=O)=O)ccc32)cs1 [US12084420, Compound 231] | 8.7 nM |
| C=C1CCC1NS(=O)(=O)c1cccc(C(=O)N2CC3(CCC4(CC4)CC3)c3cc(NS(C)(=O)=O)ccc32)c1 (configuration not stated) [US12084420, Compound 233] | 12 nM |
| CS(=O)(=O)Nc1ccc2c(c1)C1(CCC3(CC3)CC1)CN2C(=O)c1cccc(S(=O)(=O)N2CCC(C(F)F)C2)c1 (configuration not stated) [US12084420, Compound 247] | 21 nM |
| CS(=O)(=O)Nc1ccc2c(c1)C1(CCC3(CC3)CC1)CN2C(=O)c1cccc(S(=O)(=O)NC2CC3CC3C2)c1 (configuration not stated) [US12084420, Compound 254] | 10 nM |
| CCC(C)(C)NS(=O)(=O)c1cccc(C(=O)N2CC3(CCC4(CC4)CC3)c3cc(NS(C)(=O)=O)ccc32)c1 [US12084420, Compound 266] | 16 nM |
| CS(=O)(=O)Nc1ccc2c(c1)C1(CCC3(CC3)CC1)CN2C(=O)c1cccc(/C=N/N2CCCCC2)c1 [US12084420, Compound 318] | 930 nM |
| CC(C)(C)NS(=O)(=O)c1cc(C(=O)N2CC3(CCC4(CC4)CC3)c3cc(NS(C)(=O)=O)ccc32)co1 [US12084420, Compound 319] | 1200 nM |
| CC(C)(C)NS(=O)(=O)c1cccc(C(=O)N2CC3(CCC4(CC4)CC3)c3cc(NS(=O)(=O)CCF)ccc32)c1 [US12084420, Compound 365] | 13 nM |
